{"source": "patent US8563500B2", "about": "“Methods and compounds for treating diseases caused by reactive oxygen species” (Deutsches Krebsforschungszentrum Stiftung des Offentlichen …, priority 2007, dated 2013)", "key": {"CD95L [1]": {"system": "CD95L", "experiment": "Activation-induced CD95L expression, semi-quantitative RT-PCR and quantitative PCR, Jurkat cells", "format": "cell-based, human", "conditions": "for reduction of CD95L induction, quantitative PCR: plate-bound anti-CD3 (TCR triggering)"}, "Jurkat J16-145 cells [2]": {"system": "Jurkat J16-145 cells", "experiment": "Activation-induced (PMA or anti-CD3) ROS generation, DCFDA oxidation by FACS", "format": "cell-based, human"}, "Jurkat J16-145 cells [3]": {"system": "Jurkat J16-145 cells", "experiment": "Activation-induced T cell death (AICD), specific cell death by FSC/SSC, Jurkat cells", "format": "cell-based, human", "conditions": "PMA/ionomycin or plate-bound anti-CD3, 24 h", "method": "(§1) Assessment of cell death. […] Cell death was assessed by a drop in the forward-to-side-scatter (FSC/SSC) profile in comparison to living cells and recalculated to “specific cell death” as described (25)."}, "[4]": {"system": "primary human T cells (day 6 T cells)", "experiment": "Anti-CD3 induced ROS generation (DCFDA) in primary human T cells", "format": "cell-based", "conditions": "preactivated primary human T cells (day 6); anti-CD3 30 min"}, "CD95L [5]": {"system": "CD95L", "experiment": "Anti-CD3 induced CD95L expression in primary human T cells (PCR)", "format": "cell-based", "conditions": "day 6 T cells"}, "[6]": {"system": "primary human T cells (day 6 T cells)", "experiment": "AICD in primary human T cells, specific cell death", "format": "cell-based", "conditions": "plate-bound anti-CD3 24 h", "method": "FIG. 9. Primary human T cells depend on complex I-originated activation-induced ROS for CD95L expression and AICD. […] Cells were stained with DCFDA and MFI was measured by FACS. […] Next, RNA was isolated, reverse-transcribed, and amplified using CD95L- and actin-specific primers. C, T cells were transfected with 900 nM of scrambled- (ctr) or two different NDUFAF1-siRNA oligonucleotides (#1, #2). After 48 h, RNA was isolated, reverse-transcribed, and amplified using NDUFAF1- and actin-specific primers. D, 72 h after transfection with 900 nM of scrambled- (ctr) or NDUFAF1-siRNA oligonucleotides (#1, #2) primary human T were stimulated by plate-bound anti-CD3 antibodies for 30 min and oxidative signal was determined as in (A). […] (ii) For 1 h (F), to detect changes in CD95L expression (left panel semi quantitative PCR; right panel quantitative PCR). (iii) For 24 h (G) to assessed AICD by a drop in FCS/SSC index. Insert show T cells cotreated with or without CD95L neutralizing antibody (results were recalculated to “specific cell death”). H, Schematic diagram of TCR induced oxidative signalling.\nIsolation of human peripheral T cells. […]\nas §1"}, "CD95 receptor [7]": {"system": "CD95 receptor", "experiment": "Apoptosis induced via direct stimulation of the CD95 receptor, Jurkat cells", "format": "cell-based, human", "conditions": "data not shown"}, "CD95 receptor [8]": {"system": "CD95 receptor", "experiment": "Apoptosis induced by direct stimulation of the CD95 receptor, primary T cells", "format": "cell-based, human", "conditions": "data not shown"}, "IL-2, IL-4, or TNF-alpha": {"system": "IL-2, IL-4, or TNF-alpha", "experiment": "Cytokine expression in activated T cells (RT-PCR)", "format": "cell-based, human"}, "complex I [9]": {"system": "complex I", "conditions": "references 6, 18; cited from earlier work"}, "complex I [10]": {"system": "complex I", "conditions": "isolated mitochondria; reference 6; cited from earlier work"}, "Jurkat J16-145 cells [11]": {"system": "Jurkat J16-145 cells", "experiment": "Cellular ATP determination", "format": "cell-based, human", "conditions": "high concentrations of inhibitors, 2 h"}, "[12]": {"conditions": "Jurkat J16-145, anti-CD3 or PMA/ionomycin, 1 h"}}, "note": "Like-named read-outs stand apart in the source and are kept apart here.", "data": [{"smiles": "CN(C)CCCn1cc(C2=C(c3c[nH]c4ccccc34)C(=O)NC2=O)c2ccccc21", "note": "[BIM, bisindolylmaleimide I]", "values": [{"measurement": "effect on activation-induced CD95L expression (RT-PCR), in words", "setting": "CD95L [1]", "result": "dose dependent inhibition of CD95L expression"}]}, {"smiles": "c1ccc2c(c1)[I+]c1ccccc1-2", "note": "[DPI]", "values": [{"measurement": "effect on PMA-induced ROS generation / oxidative signal, in words", "setting": "Jurkat J16-145 cells [2]; Jurkat J16-145, PMA 30 min", "result": "only a moderate effect"}]}, {"smiles": "O=C(CC(=O)C(F)(F)F)c1cccs1", "note": "[TTFA, 1,1,1-thenoyl trifluoroacetone]", "values": [{"measurement": "effect on activation-induced (TCR- and PMA-induced) ROS generation, in words", "setting": "Jurkat J16-145 cells [2]", "result": "no effect or increased the oxidative signal"}]}, {"smiles": "COc1cc(C(C)=O)ccc1O", "note": "[apocynin]", "values": [{"measurement": "effect on PMA-induced ROS generation / oxidative signal, in words", "setting": "Jurkat J16-145 cells [2]; Jurkat J16-145, PMA 30 min", "result": "only a moderate effect"}]}, {"smiles": "CN(C)C(=N)N=C(N)N", "note": "[metformin]", "values": [{"measurement": "effect on PMA-induced ROS generation / oxidative signal, in words", "setting": "Jurkat J16-145 cells [2]", "result": "diminished oxidative signal"}, {"measurement": "reduction of CD95L expression, quantitative PCR", "setting": "CD95L [1]; Jurkat J16-145, PMA/ionomycin, 1 h", "result": 50, "unit": "%"}, {"measurement": "effect on activation-induced CD95L expression (RT-PCR), in words", "setting": "CD95L [1]; [12]", "result": "inhibition of CD95L expression"}, {"measurement": "reduction of CD95L induction, quantitative PCR", "setting": "CD95L [1]; Jurkat J16-145, 1 h", "result": "up to 80%"}, {"measurement": "effect on AICD, in words", "setting": "Jurkat J16-145 cells [3]", "result": "drastically reduced AICD"}, {"measurement": "effect on activation-induced (anti-CD3) oxidative signal, in words", "setting": "[4]", "result": "inhibits the anti-CD3 induced oxidative signal"}, {"measurement": "inhibition of induction of CD95L expression", "setting": "CD95L [5]; plate-bound anti-CD3 1 h", "result": "up to 70%"}, {"measurement": "effect on AICD (cell death), in words", "setting": "[6]", "result": "nearly completely inhibited"}, {"measurement": "apoptosis induced via direct stimulation of the CD95 receptor", "setting": "CD95 receptor [7]", "result": "not affected"}, {"measurement": "apoptosis induced by direct stimulation of the CD95 receptor", "setting": "CD95 receptor [8]", "result": "not affected"}, {"measurement": "expression of cytokines such as IL-2, IL-4, or TNF-alpha", "setting": "IL-2, IL-4, or TNF-alpha", "result": "can be reduced"}, {"measurement": "inhibition of complex I", "setting": "complex I [9]", "result": "mildly inhibits"}, {"measurement": "inhibition of complex I-induced ROS production", "setting": "complex I [10]", "result": "efficiently inhibit"}]}, {"smiles": "CC[C@H]1/C=C/C=C/C[C@@H](C)[C@H](O)[C@@](C)(O)C(=O)[C@@H](C)[C@H](O)[C@@H](C)C(=O)[C@@H](C)[C@H](O)[C@@H](C)/C=C/C(=O)O[C@@H]2[C@H](C)[C@H](CC1)O[C@]1(CC[C@H](C)[C@H](C[C@@H](C)O)O1)[C@H]2C", "note": "[oligomycin]", "values": [{"measurement": "effect on activation-induced (TCR- and PMA-induced) ROS generation, in words", "setting": "Jurkat J16-145 cells [2]; Jurkat J16-145, anti-CD3 or PMA, 30 min", "result": "no effect or increased the oxidative signal"}, {"measurement": "reduction of CD95L induction, quantitative PCR", "setting": "CD95L [1]; Jurkat J16-145, 1 h", "result": "no effect"}, {"measurement": "ATP depletion compared to rotenone and piericidin A", "setting": "Jurkat J16-145 cells [11]", "result": "more efficient ATP depletion"}]}, {"smiles": "C/C=C(\\C)[C@H](O)[C@H](C)/C=C(C)/C=C/C/C(C)=C/Cc1nc(OC)c(OC)c(O)c1C", "note": "[piericidin A]", "values": [{"measurement": "effect on activation-induced (TCR- and PMA-induced) ROS generation, in words", "setting": "Jurkat J16-145 cells [2]", "result": "able to inhibit"}, {"measurement": "effect on activation-induced CD95L expression (RT-PCR), in words", "setting": "CD95L [1]; [12]", "result": "abolished CD95L transcription almost completely"}]}, {"smiles": "C=C(C)[C@H]1Cc2c(ccc3c2O[C@@H]2COc4cc(OC)c(OC)cc4[C@@H]2C3=O)O1", "note": "[rotenone]", "values": [{"measurement": "effect on activation-induced (TCR- and PMA-induced) ROS generation, in words", "setting": "Jurkat J16-145 cells [2]", "result": "able to inhibit"}, {"measurement": "effect on activation-induced CD95L expression (RT-PCR), in words", "setting": "CD95L [1]; [12]", "result": "abolished CD95L transcription almost completely"}, {"measurement": "reduction of CD95L induction, quantitative PCR", "setting": "CD95L [1]; Jurkat J16-145, 1 h", "result": "more than 80%"}, {"measurement": "effect on activation-induced (anti-CD3) oxidative signal, in words", "setting": "[4]", "result": "exclusively inhibited"}, {"measurement": "effect on CD95L expression, in words", "setting": "CD95L [5]; anti-CD3 1 h", "result": "exclusively inhibited"}]}]}
